In US8450266B2 (Ipsen Pharma S.A.S., priority 2008, dated 2013):
Where a SMILES comes first, the peptide text is derived from it. [ ]: non-standard residue; d: D form. The star is where a group is joined. Cyclohexanecarbonyl = O=C(C1CCCCC1)*; Decanoyl = CCCCCCCCCC(=O)*; Orn = NCCC[C@H](N)C(=O)O; X1 = CCCN1C(=O)CC(*)C1=O; Hexanoyl = CCCCCC(=O)*

How the values were obtained:
[1] = Human plasma half-life assay (LC-MS); type: in vitro ADME; conditions: incubated at 37° C., read-out: Human Plasma T½ (converted)
Summary of the method: (§1)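 Aliquots taken from human or rat plasma at time points up to 72 h, quenched with formic acid and acetonitrile, centrifuged. Supernatant analyzed by LC-MS (ESI, positive ion, full scan) on a C8 column with a water/acetonitrile 1% formic acid gradient.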

[2] = Rat plasma half-life assay (LC-MS); type: in vitro ADME; conditions: incubated at 37° C., read-out: Rat Plasma T½ (converted)
Summary of the method: as §1

Structure (SMILES)	half-life at 0.1 mg/mL [1] [h]	half-life at 0.1 mg/mL [2] [h]	half-life at 0.1 mg/ml [1] [h]	half-life at 0.1 mg/ml [2] [h]
CCCN1C(=O)CC(SC[C@H](NC(=O)[C@H](CCCCN)NC(=O)[C@H](CCC(N)=O)NC(=O)[C@H](C)NC(=O)[C@H](CC(C)C)NC(=O)[C@H](CC(C)C)NC(=O)[C@H](Cc2c[nH]c3ccccc23)NC(=O)[C@H](CC(N)=O)NC(=O)[C@@H](NC(=O)[C@H](Cc2ccccc2)NC(=O)[C@H](CC(=O)O)NC(=O)[C@H](CCC(N)=O)NC(=O)[C@H](CCC(N)=O)NC(=O)[C@H](Cc2c[nH]cn2)NC(=O)[C@@H](NC(=O)[C@H](CCCCN)NC(=O)[C@H](CC(=O)O)NC(=O)[C@H](CCSC)NC(=O)[C@H](C)NC(=O)[C@@H](NC(=O)[C@H](CO)NC(=O)[C@H](Cc2ccc(O)cc2)NC(=O)[C@H](CC(=O)O)NC(=O)[C@H](CO)NC(=O)C2(NC(=O)[C@@H](N)Cc3ccccc3)CCCCC2)[C@@H](C)CC)[C@@H](C)CC)C(C)C)C(N)=O)C1=O (stereo partly shown) [Example 34, [A6c^7, Cys(Psu)^31]hGIP(6-31)-NH2]	11.3	7.4		
CCCC[C@H](NC(=O)[C@H](C)NC(=O)[C@@H](NC(=O)[C@H](CO)NC(=O)[C@H](Cc1ccc(O)cc1)NC(=O)[C@H](CC(=O)O)NC(=O)[C@H](CO)NC(=O)C1(NC(=O)[C@@H](N)Cc2ccccc2)CCCC1)[C@@H](C)CC)C(=O)N[C@@H](CC(=O)O)C(=O)N[C@@H](CCCCN)C(=O)N[C@H](C(=O)N[C@@H](Cc1c[nH]cn1)C(=O)N[C@@H](CCC(N)=O)C(=O)N[C@@H](CCC(N)=O)C(=O)N[C@@H](CC(=O)O)C(=O)N[C@@H](Cc1ccccc1)C(=O)N[C@H](C(=O)N[C@@H](CC(N)=O)C(=O)N[C@@H](Cc1c[nH]c2ccccc12)C(=O)N[C@@H](CC(C)C)C(=O)N[C@@H](CC(C)C)C(=O)N[C@@H](C)C(=O)N[C@@H](CCC(N)=O)C(=O)N[C@@H](CCCCN)C(N)=O)C(C)C)[C@@H](C)CC [Example 35, (A5c^7, Nle^14)hGIP(6-30)-NH2] (HELM PEPTIDE1{F.[O=C(C1(N[*:1])CCCC1)[*:2]].S.D.Y.S.I.A.[Nle].D.K.I.H.Q.Q.D.F.V.N.W.L.L.A.Q.K.[am]}$$$$V2.0)	16.5	23		
CCCC[C@H](NC(=O)[C@H](C)NC(=O)[C@@H](NC(=O)[C@H](CO)NC(=O)[C@H](Cc1ccc(O)cc1)NC(=O)[C@H](CC(=O)O)NC(=O)[C@H](CO)NC(=O)C1(NC(=O)[C@@H](N)Cc2ccccc2)CCCCC1)[C@@H](C)CC)C(=O)N[C@@H](CC(=O)O)C(=O)N[C@@H](CCCCN)C(=O)N[C@H](C(=O)N[C@@H](Cc1c[nH]cn1)C(=O)N[C@@H](CCC(N)=O)C(=O)N[C@@H](CCC(N)=O)C(=O)N[C@@H](CC(=O)O)C(=O)N[C@@H](Cc1ccccc1)C(=O)N[C@H](C(=O)N[C@@H](CC(N)=O)C(=O)N[C@@H](Cc1c[nH]c2ccccc12)C(=O)N[C@@H](CC(C)C)C(=O)N[C@@H](CC(C)C)C(=O)N[C@@H](C)C(=O)N[C@@H](CCC(N)=O)C(=O)N[C@@H](CCCCN)C(N)=O)C(C)C)[C@@H](C)CC [Example 36, (A6c^7, Nle^14)hGIP(6-30)-NH2] (HELM PEPTIDE1{F.[O=C(C1(N[*:1])CCCCC1)[*:2]].S.D.Y.S.I.A.[Nle].D.K.I.H.Q.Q.D.F.V.N.W.L.L.A.Q.K.[am]}$$$$V2.0)	21.9	21.6		
CCCC[C@H](NC(=O)[C@H](C)NC(=O)[C@@H](NC(=O)C(C)(C)NC(=O)[C@H](Cc1ccc(O)cc1)NC(=O)[C@H](CC(=O)O)NC(=O)[C@H](CO)NC(=O)[C@@H](NC(=O)[C@@H](N)Cc1ccccc1)[C@@H](C)CC)[C@@H](C)CC)C(=O)N[C@@H](CC(=O)O)C(=O)N[C@@H](CCCCN)C(=O)N[C@H](C(=O)N[C@@H](Cc1c[nH]cn1)C(=O)N[C@@H](CCC(N)=O)C(=O)N[C@@H](CCC(N)=O)C(=O)N[C@@H](CC(=O)O)C(=O)N[C@@H](Cc1ccccc1)C(=O)N[C@H](C(=O)N[C@@H](CC(N)=O)C(=O)N[C@@H](Cc1c[nH]c2ccccc12)C(=O)N[C@@H](CC(C)C)C(=O)N[C@@H](CC(C)C)C(=O)N[C@@H](C)C(=O)N[C@@H](CCC(N)=O)C(=O)N[C@@H](CCCCN)C(N)=O)C(C)C)[C@@H](C)CC [Example 37, (Aib^11, Nle^14)hGIP(6-30)-NH2] (HELM PEPTIDE1{F.I.S.D.Y.[Aib].I.A.[Nle].D.K.I.H.Q.Q.D.F.V.N.W.L.L.A.Q.K.[am]}$$$$V2.0)	13.5	28.5		
CCCCCCCCCC(=O)NCCC[C@H](NC(=O)[C@H](CCCCN)NC(=O)[C@H](CCC(N)=O)NC(=O)[C@H](C)NC(=O)[C@H](CC(C)C)NC(=O)[C@H](CC(C)C)NC(=O)[C@H](Cc1c[nH]c2ccccc12)NC(=O)[C@H](CC(N)=O)NC(=O)[C@@H](NC(=O)[C@H](Cc1ccccc1)NC(=O)[C@H](CC(=O)O)NC(=O)[C@H](CCC(N)=O)NC(=O)[C@H](CCC(N)=O)NC(=O)[C@H](Cc1c[nH]cn1)NC(=O)[C@@H](NC(=O)[C@H](CCCCN)NC(=O)[C@H](CC(=O)O)NC(=O)[C@H](CCSC)NC(=O)[C@H](C)NC(=O)[C@@H](NC(=O)[C@H](CO)NC(=O)[C@H](Cc1ccc(O)cc1)NC(=O)[C@H](CC(=O)O)NC(=O)[C@@H](N)CO)[C@@H](C)CC)[C@@H](C)CC)C(C)C)C(=O)N[C@@H](CCCCN)C(=O)N[C@@H](CCCCN)C(=O)N[C@@H](CC(N)=O)C(=O)N[C@@H](CC(=O)O)C(=O)N[C@@H](Cc1c[nH]c2ccccc12)C(=O)N[C@@H](CCCCN)C(=O)N[C@@H](Cc1c[nH]cn1)C(=O)N[C@@H](CC(N)=O)C(=O)N[C@H](C(=O)N[C@H](C(=O)N[C@@H](CCC(N)=O)C(=O)O)[C@@H](C)O)[C@@H](C)CC [Example 39, [Orn^31(N-C(O)-(CH2)8-CH3)]hGIP(8-42)-OH] (H-SDYSIAMDKIHQQDFVNWLLAQK[Orn](Decanoyl)KKNDWKHNITQ-OH)			31.1	13.7
CCCN1C(=O)CC(SC[C@H](NC(=O)[C@H](CCCCN)NC(=O)[C@H](CCC(N)=O)NC(=O)[C@H](C)NC(=O)[C@H](CC(C)C)NC(=O)[C@H](CC(C)C)NC(=O)[C@H](Cc2c[nH]c3ccccc23)NC(=O)[C@H](CC(N)=O)NC(=O)[C@@H](NC(=O)[C@H](Cc2ccccc2)NC(=O)[C@H](CC(=O)O)NC(=O)[C@H](CCC(N)=O)NC(=O)[C@H](CCC(N)=O)NC(=O)[C@H](Cc2c[nH]cn2)NC(=O)[C@@H](NC(=O)[C@H](CCCCN)NC(=O)[C@H](CC(=O)O)NC(=O)[C@H](CCSC)NC(=O)[C@H](C)NC(=O)[C@@H](NC(=O)[C@H](CO)NC(=O)[C@H](Cc2ccc(O)cc2)NC(=O)[C@H](CC(=O)O)NC(=O)[C@H](CO)NC(=O)C2CCCCC2)[C@@H](C)CC)[C@@H](C)CC)C(C)C)C(=O)N[C@@H](CCCCN)C(=O)N[C@@H](CCCCN)C(=O)N[C@@H](CC(N)=O)C(=O)N[C@@H](CC(=O)O)C(=O)N[C@@H](Cc2c[nH]c3ccccc23)C(=O)N[C@@H](CCCCN)C(=O)N[C@@H](Cc2c[nH]cn2)C(=O)N[C@@H](CC(N)=O)C(=O)N[C@H](C(=O)N[C@H](C(=O)N[C@@H](CCC(N)=O)C(=O)O)[C@@H](C)O)[C@@H](C)CC)C1=O (stereo partly shown) [Example 40, [Chc-Ser^8, Cys(Psu)^31]hGIP(8-42)-OH] (Cyclohexanecarbonyl-SDYSIAMDKIHQQDFVNWLLAQKC(X1)KKNDWKHNITQ-OH)	4.1	6.9		
CCCCCC(=O)N[C@@H](CO)C(=O)N[C@@H](CC(=O)O)C(=O)N[C@@H](Cc1ccc(O)cc1)C(=O)N[C@@H](CO)C(=O)N[C@H](C(=O)N[C@@H](C)C(=O)N[C@@H](CCSC)C(=O)N[C@@H](CC(=O)O)C(=O)N[C@@H](CCCCN)C(=O)N[C@H](C(=O)N[C@@H](Cc1c[nH]cn1)C(=O)N[C@@H](CCC(N)=O)C(=O)N[C@@H](CCC(N)=O)C(=O)N[C@@H](CC(=O)O)C(=O)N[C@@H](Cc1ccccc1)C(=O)N[C@H](C(=O)N[C@@H](CC(N)=O)C(=O)N[C@@H](Cc1c[nH]c2ccccc12)C(=O)N[C@@H](CC(C)C)C(=O)N[C@@H](CC(C)C)C(=O)N[C@@H](C)C(=O)N[C@@H](CCC(N)=O)C(=O)N[C@@H](CCCCN)C(=O)N[C@@H](CSC1CC(=O)N(CCC)C1=O)C(=O)N[C@@H](CCCCN)C(=O)N[C@@H](CCCCN)C(=O)N[C@@H](CC(N)=O)C(=O)N[C@@H](CC(=O)O)C(=O)N[C@@H](Cc1c[nH]c2ccccc12)C(=O)N[C@@H](CCCCN)C(=O)N[C@@H](Cc1c[nH]cn1)C(=O)N[C@@H](CC(N)=O)C(=O)N[C@H](C(=O)N[C@H](C(=O)N[C@@H](CCC(N)=O)C(=O)O)[C@@H](C)O)[C@@H](C)CC)C(C)C)[C@@H](C)CC)[C@@H](C)CC (stereo partly shown) [Example 41, [CH3-(CH2)4-C(O)-Ser^8, Cys(Psu)^31]hGIP(8-42)-OH] (Hexanoyl-SDYSIAMDKIHQQDFVNWLLAQKC(X1)KKNDWKHNITQ-OH)	5.9	3.7		
CCCC[C@H](NC(=O)[C@H](C)NC(=O)[C@@H](NC(=O)[C@H](CO)NC(=O)[C@H](Cc1ccc(O)cc1)NC(=O)[C@H](CC(=O)O)NC(=O)[C@H](CO)NC(=O)[C@@H](NC(=O)[C@H](Cc1ccccc1)NC(=O)[C@@H](NC(=O)CNC(=O)[C@@H]1CCCN1C(=O)CCc1ccc(O)cc1)[C@@H](C)O)[C@@H](C)CC)[C@@H](C)CC)C(=O)N[C@@H](CC(=O)O)C(=O)N[C@@H](CCCCN)C(=O)N[C@H](C(=O)N[C@@H](Cc1c[nH]cn1)C(=O)N[C@@H](CCC(N)=O)C(=O)N[C@@H](CCC(N)=O)C(=O)N[C@@H](CC(=O)O)C(=O)N[C@@H](Cc1ccccc1)C(=O)N[C@H](C(=O)N[C@@H](CC(N)=O)C(=O)N[C@@H](Cc1c[nH]c2ccccc12)C(=O)N[C@@H](CC(C)C)C(=O)N[C@@H](CC(C)C)C(=O)N[C@@H](C)C(=O)N[C@@H](CCC(N)=O)C(=O)N[C@@H](CCCCN)C(=O)NCC(=O)N[C@@H](CCCCN)C(=O)N[C@@H](CCCCN)C(=O)N[C@@H](CC(N)=O)C(=O)N[C@@H](CC(=O)O)C(=O)N[C@@H](Cc1c[nH]c2ccccc12)C(=O)N[C@@H](CCCCN)C(=O)N[C@@H](Cc1c[nH]cn1)C(=O)N[C@@H](CC(N)=O)C(=O)N[C@H](C(=O)N[C@H](C(=O)N[C@@H](CCC(N)=O)C(=O)O)[C@@H](C)O)[C@@H](C)CC)C(C)C)[C@@H](C)CC [Example 43, (4Hppa^2, Pro^3, Nle^14)hGIP(2-42)-OH]	> 53	2.3		
